This note sets out measurements from ChEMBL document CHEMBL5532665 (J Med Chem, 2024).

By EC50 is commonly meant the concentration needed to bring the measured effect to its halfway point. Broadly, the Emax is the size of the effect at its maximum, as opposed to the concentration needed. Broadly, the half-life is how long it takes for the measured level to halve.

The subject of data set [1] is Mus musculus. In words: Antinociceptive activity in Kunming mouse model assessed as latency of tail withdrawal at 134 nmol/kg, sc measured for 120 mins by tail-flick test relative to control. In kind it is functional. The conditions noted are these: 2 h. For orientation: In hot-plate and tail-flick tests a longer latency is read as antinociception.
The subject of data set [2] is Mus musculus. In words: Antinociceptive activity in Kunming mouse model assessed as latency of tail withdrawal at 134 nmol/kg, sc measured for 30 mins by tail-flick test relative to control. In kind it is functional. The conditions noted are these: 0.5 h.
Data set [3] addresses Kappa-type opioid receptor (Homo sapiens, UniProt P41145). Nature of the data set: Agonist activity at human KOR expressed in CHO-K1 cells co-expressing G-alpha15 upto 100 uM by calcium mobilization assay. In kind it is functional, cell-based. (In general: Calcium flux is commonly read through the fluorescence of an indicator in the cells.)
Data set [4] deals with T1, Mu-type opioid receptor (Homo sapiens, UniProt P35372). In words: Agonist activity at human MOR expressed in CHO-K1 cells co-expressing G-alpha15 by calcium mobilization assay. It counts as functional, cell-based.
Data set [5] deals with Mus musculus. Nature of the data set: Antinociceptive activity in Kunming mouse model assessed as latency of tail withdrawal at 134 nmol/kg, sc measured for 10 mins by tail-flick test relative to control. It counts as functional.
The subject of data set [6] is Mus musculus. In words: Antinociceptive activity in Kunming mouse model assessed as latency of tail withdrawal at 134 nmol/kg, sc measured for 60 mins by tail-flick test relative to control. In kind it is functional. To be noted: 1 h.
Data set [7] concerns the target T1, Mu-type opioid receptor. Nature of the data set: Agonist activity at human MOR expressed in CHO-K1 cells co-expressing G-alpha15 by calcium mobilization assay relative to control. It counts as functional, cell-based. To be noted: filed as agonist.
Data set [8] concerns Mus musculus. In words: Antinociceptive activity in Kunming mouse model assessed as latency of tail withdrawal at 136.2 nmol/kg, sc measured for 60 mins by tail-flick test relative to control. The conditions noted are these: 1 h. It counts as functional.
Data set [9] relates to Mus musculus. In words: Antinociceptive activity in Kunming mouse model assessed as latency of tail withdrawal at 136.2 nmol/kg, sc measured for 10 mins by tail-flick test relative to control. It counts as functional.
Data set [10] concerns Mus musculus. Nature of the data set: Antinociceptive activity in Kunming mouse model assessed as latency of tail withdrawal at 136.2 nmol/kg, sc measured for 120 mins by tail-flick test relative to control. To be noted: 2 h. In kind it is functional.
The test system of data set [11] is Mus musculus. Nature of the data set: Antinociceptive activity in Kunming mouse model assessed as latency of tail withdrawal at 136.2 nmol/kg, sc measured for 30 mins by tail-flick test relative to control. It counts as functional. The conditions noted are these: 0.5 h.
Data set [12] deals with Mus musculus. Nature of the data set: Antinociceptive activity in Kunming mouse model assessed as latency of tail withdrawal at 13881 nmol/kg, sc measured for 60 mins by tail-flick test relative to control. The conditions noted are these: 1 h. In kind it is functional.
Data set [13] has as its system Mus musculus. In words: Antinociceptive activity in Kunming mouse model assessed as latency of tail withdrawal at 13881 nmol/kg, sc measured for 10 mins by tail-flick test relative to control. In kind it is functional.
The test system of data set [14] is Mus musculus. In words: Antinociceptive activity in Kunming mouse model assessed as latency of tail withdrawal at 13881 nmol/kg, sc measured for 120 mins by tail-flick test relative to control. It counts as functional. To be noted: 2 h.
In data set [15] the test system is Mus musculus. Nature of the data set: Antinociceptive activity in Kunming mouse model assessed as latency of tail withdrawal at 13881 nmol/kg, sc measured for 30 mins by tail-flick test relative to control. In kind it is functional. The conditions noted are these: 0.5 h.
Data set [16] deals with Mus musculus. In words: Antinociceptive activity in Kunming mouse model assessed as latency of tail withdrawal at 1362 nmol/kg, sc measured for 30 mins by tail-flick test relative to control. The conditions noted are these: 0.5 h. It counts as functional.
Data set [17] deals with Mus musculus. Nature of the data set: Antinociceptive activity in Kunming mouse model assessed as latency of tail withdrawal at 1362 nmol/kg, sc measured for 10 mins by tail-flick test relative to control. It counts as functional.
The subject of data set [18] is Mus musculus. In words: Antinociceptive activity in Kunming mouse model assessed as latency of tail withdrawal at 1362 nmol/kg, sc measured for 60 mins by tail-flick test relative to control. It counts as functional. The conditions noted are these: 1 h.
For data set [19], the system named is Mus musculus. In words: Antinociceptive activity in Kunming mouse model assessed as latency of tail withdrawal at 1362 nmol/kg, sc measured for 120 mins by tail-flick test relative to control. The conditions noted are these: 2 h. It counts as functional.
Data set [20] relates to Mus musculus. Nature of the data set: Antinociceptive activity in Kunming mouse model assessed as latency of tail withdrawal at 13882 nmol/kg, sc measured for 30 mins by tail-flick test relative to control. In kind it is functional. To be noted: 0.5 h.
Data set [21] relates to Mus musculus. Nature of the data set: Antinociceptive activity in Kunming mouse model assessed as latency of tail withdrawal at 13882 nmol/kg, sc measured for 60 mins by tail-flick test relative to control. In kind it is functional. The conditions noted are these: 1 h.
The test system of data set [22] is Mus musculus. Nature of the data set: Antinociceptive activity in Kunming mouse model assessed as latency of tail withdrawal at 13882 nmol/kg, sc measured for 120 mins by tail-flick test relative to control. The conditions noted are these: 2 h. It counts as functional.
Data set [23] relates to Mus musculus. Nature of the data set: Antinociceptive activity in Kunming mouse model assessed as latency of tail withdrawal at 13882 nmol/kg, sc measured for 10 mins by tail-flick test relative to control. In kind it is functional.
Data set [24] is described as follows: Stability in mouse plasma assessed as half life at 0.01 mol/L measured for 72 hrs by RP-HPLC analysis. It counts as ADME, cell-free.
The test system of data set [25] is Mus musculus. Nature of the data set: Antinociceptive activity in Kunming mouse model assessed as latency of tail withdrawal at 14157 nmol/kg, sc measured for 30 mins by tail-flick test relative to control. It counts as functional. The conditions noted are these: 0.5 h.
The subject of data set [26] is Mus musculus. Nature of the data set: Antinociceptive activity in Kunming mouse model assessed as latency of tail withdrawal at 14157 nmol/kg, sc measured for 120 mins by tail-flick test relative to control. The conditions noted are these: 2 h. In kind it is functional.
The subject of data set [27] is Mus musculus. Nature of the data set: Antinociceptive activity in Kunming mouse model assessed as latency of tail withdrawal at 14157 nmol/kg, sc measured for 60 mins by tail-flick test relative to control. In kind it is functional. To be noted: 1 h.
Data set [28] has as its target T2, Delta-type opioid receptor (Homo sapiens, UniProt P41143). In words: Agonist activity at human DOR expressed in CHO-K1 cells co-expressing G-alpha15 by calcium mobilization assay. In kind it is functional, cell-based.
For data set [29], the system named is Mus musculus. Nature of the data set: Antinociceptive activity in Kunming mouse model assessed as latency of tail withdrawal at 14157 nmol/kg, sc measured for 10 mins by tail-flick test relative to control. It counts as functional.
In data set [30] the target is T2, Delta-type opioid receptor. In words: Agonist activity at human DOR expressed in CHO-K1 cells co-expressing G-alpha15 by calcium mobilization assay relative to control. To be noted: filed as agonist. In kind it is functional, cell-based.

Molecules are shown by their SMILES. Activity calls are given as the source filed them. The rule behind the calls is not given here.

T1 sequence (P35372 whole entry): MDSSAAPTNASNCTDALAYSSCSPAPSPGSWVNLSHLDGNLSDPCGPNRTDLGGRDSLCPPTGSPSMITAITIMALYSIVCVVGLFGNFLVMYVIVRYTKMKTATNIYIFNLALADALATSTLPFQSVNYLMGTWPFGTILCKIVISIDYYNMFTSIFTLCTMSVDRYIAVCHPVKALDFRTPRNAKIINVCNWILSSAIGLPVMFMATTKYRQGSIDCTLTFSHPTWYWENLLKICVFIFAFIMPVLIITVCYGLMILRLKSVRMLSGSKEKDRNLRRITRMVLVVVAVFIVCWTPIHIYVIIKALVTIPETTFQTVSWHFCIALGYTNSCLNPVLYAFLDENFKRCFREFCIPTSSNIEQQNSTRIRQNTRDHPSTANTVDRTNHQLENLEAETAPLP
T2 sequence (P41143 whole entry): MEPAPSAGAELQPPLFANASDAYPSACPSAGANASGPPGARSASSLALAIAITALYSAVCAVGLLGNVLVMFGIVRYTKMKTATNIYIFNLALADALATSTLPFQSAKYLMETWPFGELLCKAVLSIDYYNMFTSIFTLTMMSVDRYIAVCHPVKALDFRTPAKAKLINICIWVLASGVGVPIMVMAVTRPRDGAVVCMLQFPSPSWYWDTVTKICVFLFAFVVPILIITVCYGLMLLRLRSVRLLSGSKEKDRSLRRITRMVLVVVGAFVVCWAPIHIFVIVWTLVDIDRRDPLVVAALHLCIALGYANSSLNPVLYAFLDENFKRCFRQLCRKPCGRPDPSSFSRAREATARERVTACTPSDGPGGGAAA
Sequence of Kappa-type opioid receptor (P41145 whole entry): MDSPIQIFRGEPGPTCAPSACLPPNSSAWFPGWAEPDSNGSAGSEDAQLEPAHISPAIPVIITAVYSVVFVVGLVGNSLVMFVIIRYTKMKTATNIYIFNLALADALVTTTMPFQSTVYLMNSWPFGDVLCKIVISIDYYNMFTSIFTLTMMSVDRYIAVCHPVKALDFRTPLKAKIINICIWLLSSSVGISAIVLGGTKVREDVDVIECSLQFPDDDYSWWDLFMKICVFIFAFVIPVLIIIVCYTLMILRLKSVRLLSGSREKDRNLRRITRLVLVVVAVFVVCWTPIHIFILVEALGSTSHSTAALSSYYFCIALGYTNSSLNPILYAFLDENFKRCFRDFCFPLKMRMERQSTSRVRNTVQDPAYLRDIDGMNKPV

Take `NC(=O)[C@@H]1CCCN1C(=O)[C@H]1CC(=O)NCCCC[C@@H](NC(=O)[C@@H](N)Cc2ccc(O)cc2)C(=O)N2CCC[C@H]2C(=O)N[C@@H](Cc2ccccc2)C(=O)N1`: the MPE in data set [1] amounted to 46.1%; in [2], 88%; in [5] it was 57.9%; in [6], 84.5%. Also, the result in data set [3] was inactive. Besides, the EC50 in data set [4] worked out at 2090 nM. For the same compound, the Emax in [7] worked out at 83.6%.
For `CC1(C)NC(=O)[C@H](NC(=O)[C@@H](N)Cc2ccc(O)cc2)CCCCNC(=O)C[C@@H](C(=O)N2CCC[C@@H]2C(N)=O)NC(=O)[C@H](Cc2ccccc2)NC1=O`, the MPE in [8] is reported as 69.3%; in data set [9] it was 48.9%; in data set [10], 46.1%; in data set [11], 91.1%.
As to `CN1CC(=O)N[C@@H](Cc2ccccc2)C(=O)N[C@H](C(=O)N2CCC[C@@H]2C(N)=O)CC(=O)NCCCC[C@@H](NC(=O)[C@@H](N)Cc2ccc(O)cc2)C1=O`, the MPE in [12] came out at 75.7%; in data set [13] it was 53.2%; in data set [14], 58.7%; in [15], 92.7%.
Turning to `Cc1cc(O)cc(C)c1C[C@H](N)C(=O)N[C@@H]1CCCCNC(=O)C[C@@H](C(=O)N2CCC[C@@H]2C(N)=O)NC(=O)[C@H](Cc2ccccc2)NC(=O)CNC1=O`, the MPE in data set [16] was 90.5%; in data set [17], 75%; in [18] it was 73.4%; in data set [19], 44.5%.
For the compound `NC(=O)[C@H]1CCCN1C(=O)[C@@H]1CC(=O)NCCCC[C@@H](NC(=O)[C@@H](N)Cc2ccc(O)cc2)C(=O)NCC(=O)N[C@@H](CCc2ccccc2)C(=O)N1`, the MPE came to 96% in data set [20], 73.7% in [21], 25.6% in [22] and 55% in data set [23].
On to `N[C@@H](Cc1ccc(O)cc1)C(=O)N[C@@H]1CCCCNC(=O)C[C@H](C(=O)N2CCC[C@H]2C(=O)O)NC(=O)[C@H](Cc2ccccc2)NC(=O)CNC1=O`, for which the half-life at 0.01 mol/L in [24] was 23 h. Further, the MPE is 97.4% in data set [25], 37.3% in [26], 77% in data set [27] and 65% in data set [29]. For the same compound, the concentration giving a half-maximal response (EC50) stood at 3.3 nM in data set [28] and 3.8 nM in data set [4]. Also, the Emax was 109% in [30] and 94.8% in [7].
